Results on 42 compounds are retold here after patent US20230391714A1, “INHIBITORS OF THE INTERACTION BETWEEN TRIP8B AND HCN CHANNELS AND USES THEREOF FOR TREATING NEUROLOGICAL DISEASES AND DISORDERS” (Northwestern University, priority 2022, published 2023).

Like-named read-outs stand apart in the source and are kept apart here. Some results are limits rather than exact numbers.

Data set [1] can be described thus: Thermodynamic solubility in PBS. It is filed as physicochemical. To be noted: aqueous buffer, thermodynamic from solid; PBS at pH 7.4, room temperature, stirring for 16 hours. From the text: (§1) Solubility and Mouse Microsomal Stability. […] In order to improve the aqueous solubility to support additional biochemical assays we made and characterized several salt forms. The formic acid (FA) salt was recovered after reverse-phase preparative HPLC while using formic acid as a modifier. […] On stirring the free amine in 4M HCl in dioxane, the compound was converted to the HCl salt as a white solid (Scheme 1). […] As a result, the HCl-salt of NUCC-0200590 was used for biophysical assays. The inhibitor was also screened for in vitro stability towards mouse liver microsomes to evaluate its potential metabolism and suitability for future in vivo experiments. The microsomal stability was measured after a 60-minute incubation at 37° C. with mouse liver microsomes. The compound was almost completely consumed by mouse liver microsomes after a 60-minute incubation as only 3.7% of the parent compound remained.

The nature of data set [2]: DMSO needed in PBS to see proton signals in 1H-NMR (aqueous solubility). To be noted: PBS (pH 7.4). In kind it is physicochemical.
Description: as §1

Data set [3] deals with TRIP8b-HCN1c40 (Homo sapiens (Human), UniProt Q8IYB4). Description: TRIP8b-HCN1c40 AlphaScreen assay. It is filed as binding. As for the experimental part:
AlphaScreen Assay. 20 nM ofGST-tagged HCNlc40 protein (corresponding to the C terminal 40 amino acids of HCN1) was incubated with 200 nM of His-tagged TRIP8b(241-602) and varying concentrations of the test compound as described in our prior report (Han et al., 2015). After a 3 h incubation, anti-GST AlphaScreen acceptor beads were added for 1.5 h followed by AlphaScreen nickel chelate donor beads for 1.5 h. AlphaScreen signal was quantified using a PerkinElmer (Waltham, MA) EnSpire multimode plate reader.
(Bead proximity is the source of the signal in Alpha formats.)

Where [4] appears, read: activity ranges, read-out: TRIP8b-HCN1c40 Alphascreen IC50 activity.
[5] abbreviates: read-out: TRIP8b-HCN1c40 Alphascreen IC50.

Sequence of TRIP8b-HCN1c40 (Q8IYB4 265-626): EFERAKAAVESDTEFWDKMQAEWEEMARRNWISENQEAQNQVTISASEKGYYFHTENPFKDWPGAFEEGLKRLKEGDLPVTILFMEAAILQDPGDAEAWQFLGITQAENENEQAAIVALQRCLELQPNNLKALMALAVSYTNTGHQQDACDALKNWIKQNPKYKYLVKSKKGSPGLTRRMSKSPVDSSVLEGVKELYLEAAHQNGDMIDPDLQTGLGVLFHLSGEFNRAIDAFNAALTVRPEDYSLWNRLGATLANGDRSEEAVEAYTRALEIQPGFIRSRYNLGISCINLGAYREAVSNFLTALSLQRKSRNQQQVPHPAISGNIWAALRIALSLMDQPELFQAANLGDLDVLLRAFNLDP

Take `CN1CCN(Cc2cc(-c3ccc(F)cc3)ccc2OCC(=O)NCc2ccc(Cl)cc2)CC1.O=CO` [NUCC-0200590 FA salt, N-(4-chlorobenzyl)-2-((4′-fluoro-3-((4-methylpiperazin-1-yl)methyl)-[1,1′-biphenyl]-4-yl)oxy)acetamide formate]: in data set [1], the solubility (thermodynamic) – broadly, the concentration in solution at equilibrium with solid – at 16 h worked out at 45 µM. For the same compound, the “DMSO in PBS required to see proton signals in 1H-NMR” value in data set [2] is reported as 15%.
As to `CN1CCN(Cc2cc(-c3ccc(Cl)c(Cl)c3)ccc2OCCNCc2ccc(Cl)cc2)CC1` [NUCC-0201976], the IC50 (in general, the midpoint of a concentration-inhibition curve) in data set [3] (setting [4]) was less than 1000 nM; in data set [3] (setting [5]), 830 nM.
`CN1CCN(Cc2cc(-c3ccccc3)ccc2OCC(=O)Nc2ccc(Cl)c(Cl)c2)CC1` [NUCC-0202004]: the half-maximal inhibitory concentration (IC50) is less than 1000 nM in data set [3] (setting [4]) and 890 nM in data set [3] (setting [5]).
For `CC(Oc1ccc(-c2ccc(F)c(C(F)(F)F)c2)cc1CN1CCN(C)CC1)C(=O)NCc1ccc(Cl)cc1` (stereo not drawn) [NUCC-0202033], in that order: less than 1000 nM and 990 nM.
In the case of `CN1CCN(Cc2cc(-c3ccc(F)cc3)ccc2OCC(=O)NCc2ccc(C(F)(F)F)cc2)CC1` [NUCC-0201103], the half-maximal inhibitory concentration (IC50) is 10000 to 20000 nM in data set [3] (setting [4]) and 15000 nM in data set [3] (setting [5]).
For `CN1CCN(Cc2cc(-c3ccc(Cl)cc3)ccc2OCC(=O)NCc2ccc(Cl)c(Cl)c2)CC1` [NUCC-0201977], in that order: less than 1000 nM and 870 nM.
Regarding `CN1CCN(Cc2cc(-c3ccc(Cl)c(Cl)c3)ccc2OCC(=O)NCc2ccc([N+](=O)[O-])cc2)CC1` [NUCC-0201985], the IC50 in data set [3] (setting [4]) is 2000 to 5000 nM; in data set [3] (setting [5]), 2500 nM.
For `CN1CCN(Cc2cc(-c3c(Cl)cc(Cl)cc3Cl)ccc2OCC(=O)NCc2ccc(Cl)cc2)CC1` [NUCC-0201970], the half-inhibitory concentration (IC50) in data set [3] (setting [5]) was less than 740 nM.
Turning to `CN1CCN(Cc2ccc(-c3ccc(F)c(C(F)(F)F)c3)cc2OCC(=O)NCc2ccc(Cl)cc2)CC1` [NUCC-0202013], the figures for the IC50 in data set [3] (setting [4]) and in data set [3] (setting [5]) were 1000 to 2000 nM and 1400 nM, respectively.
For `CN1CCN(Cc2cc(-c3ccc(Cl)c(Cl)c3)ccc2OCC(=O)NCc2ccccc2Cl)CC1` [NUCC-0201983], in that order: less than 1000 nM and 910 nM.
For `Cc1ccc(NC(=O)COc2ccc(-c3ccc(Cl)c(Cl)c3)cc2CN2CCN(C)CC2)cc1` [NUCC-0202018], in that order: 1000 to 2000 nM and 1000 nM.
On to `Cc1ccc([C@@H](C)NC(=O)C(C)Oc2ccc(-c3cc(Cl)cc(Cl)c3)cc2CN2CCN(C)CC2)cc1` (stereo partly drawn) [NUCC-0202049], for which the IC50 in data set [3] (setting [4]) is less than 1000 nM; in data set [3] (setting [5]), less than 740 nM.
For `CN1CCN(Cc2ccc(-c3ccc(C(F)(F)F)cc3)cc2OCC(=O)NCc2ccc(Cl)cc2)CC1` [NUCC-0202012], in that order: 2000 to 5000 nM and 2100 nM.
For the compound `CN1CCN(Cc2cc(-c3ccc(Cl)c(Cl)c3)ccc2OCC(=O)NCc2ccc(Cl)cc2)CC1` [NUCC-0201973], the half-inhibitory concentration (IC50) in data set [3] (setting [4]) is 1000 to 2000 nM; in data set [3] (setting [5]), 1300 nM.
For `Cc1ccc(-c2ccc(OC(C)C(=O)NCc3ccc(Cl)cc3)c(CN3CCN(C)CC3)c2)cc1` (stereo not drawn) [NUCC-0202031], in that order: 2000 to 5000 nM and 3400 nM.
In the same order, the values of `CN1CCN(Cc2ccc(-c3ccc(Cl)c(Cl)c3)cc2OCC(=O)NCc2ccc(Cl)cc2)CC1` [NUCC-0202008] are 1000 to 2000 nM and 1200 nM.
In the same order, the values of `CN1CCN(Cc2cc(-c3ccc(Cl)c(Cl)c3)ccc2OCC(=O)NC2Cc3ccc(Cl)cc3C2)CC1` (stereo not drawn) [NUCC-0201992] are less than 1000 nM and less than 740 nM.
Regarding `CN1CCN(Cc2cc(-c3ccc(F)cc3)ccc2OCC(=O)NCCN2CCCCC2)CC1` [NUCC-0201230], the half-inhibitory concentration (IC50) in data set [3] (setting [5]) is greater than 200000 nM.
In the case of `CN1CCN(Cc2cc(-c3ccc(Cl)c(Cl)c3)ccc2OCC(=O)N2CCc3ccccc32)CC1` [NUCC-0201980], the IC50 is 1000 to 2000 nM in data set [3] (setting [4]) and 1200 nM in data set [3] (setting [5]).
For `CN1CCN(Cc2ccc(-c3ccc(Cl)cc3)cc2OCC(=O)NCc2ccc(Cl)cc2)CC1` [NUCC-0202009], in that order: 1000 to 2000 nM and 1000 nM.
In the same order, the values of `CN1CCN(Cc2cc(-c3ccc(Cl)c(Cl)c3)ccc2OCCNS(=O)(=O)c2ccc(Cl)cc2)CC1` [NUCC-0201975] are 1000 to 2000 nM and 1700 nM.
For `CN1CCN(Cc2cc(-c3ccc(Cl)cc3Cl)ccc2OCC(=O)NCc2ccc(Cl)cc2)CC1` [NUCC-0202054], in that order: less than 1000 nM and less than 740 nM.
Turning to `CN1CCN(Cc2cc(-c3ccc(Cl)c(Cl)c3)ccc2OCC(=O)NCCc2ccccc2)CC1` [NUCC-0201996], the half-maximal inhibitory concentration (IC50) in data set [3] (setting [4]) was 1000 to 2000 nM; in data set [3] (setting [5]), 1100 nM.
For `CN1CCN(Cc2cc(-c3c(Cl)cc(Cl)cc3Cl)ccc2OCC(=O)NCc2ccc(Cl)c(Cl)c2)CC1` [NUCC-0201969], in that order: 1000 to 2000 nM and 1100 nM.
Take `CN1CCN(Cc2cc(OC(F)(F)F)ccc2OCC(=O)NCc2ccc(Cl)cc2)CC1` [NUCC-0201228]: the IC50 in data set [3] (setting [5]) worked out at 160000 nM.
On to `CN1CCN(Cc2cc(-c3ccc(Cl)c(Cl)c3)ccc2OCC(=O)Nc2ccc(Cl)cc2)CC1` [NUCC-0202016], for which the IC50 in data set [3] (setting [4]) was less than 1000 nM; in data set [3] (setting [5]) it was 780 nM.
With `Cc1cc(C)c(-c2ccc(OCC(=O)NCc3ccc(Cl)cc3)c(CN3CCNCC3)c2)c(C)c1` [NUCC-0201629], the IC50 in data set [3] (setting [4]) was 2000 to 5000 nM; in data set [3] (setting [5]), 3100 nM.
Regarding `CCN(CC)C(=O)COc1ccc(-c2ccc(F)cc2)cc1CN1CCN(C)CC1` [NUCC-0201100], in data set [3] (setting [5]), the IC50 was determined as 150000 nM.
In the case of `Cc1ccc(-c2ccc(CN3CCN(C)CC3)c(OCC(=O)NCc3ccc(Cl)cc3)c2)cc1` [NUCC-0202011], the results for the half-inhibitory concentration (IC50) in data set [3] (setting [4]) and in data set [3] (setting [5]) were 1000 to 2000 nM and 1500 nM, respectively.
With `CCN(CCO)Cc1cc(-c2ccc(C)cc2)ccc1OCC(=O)NCc1ccc(O)cc1` [NUCC-0201605], the IC50 in data set [3] (setting [5]) was determined as 35000 nM.
For the compound `Cc1ccc(-c2ccc(OCC(=O)NCc3ccc(Cl)cc3)c(CN3CCOCC3)c2)cc1` [NUCC-0201604], the figures for the concentration for half-maximal inhibition (IC50) in data set [3] (setting [4]) and in data set [3] (setting [5]) were 5000 to 10000 nM and 8100 nM, respectively.
For `COc1cc(NC(=O)COc2ccc(-c3cccc(C)c3)cc2CN2CC[C@H](N)C2)cc(OC)c1OC` [NUCC-0201620], in that order: 10000 to 20000 nM and 13000 nM.
In the same order, the values of `CN1CCN(Cc2cc(-c3ccc(Cl)cc3Cl)ccc2OCC(=O)NCc2ccc(Cl)c(Cl)c2)CC1` [NUCC-0201978] are less than 1000 nM and less than 740 nM.
For `CN1CCN(Cc2cc(-c3ccc(Cl)c(C(F)(F)F)c3)ccc2OCC(=O)Nc2ccc(Cl)c(Cl)c2)CC1` [NUCC-0202023], in that order: 1000 to 2000 nM and 1300 nM.
`CN1CCN(Cc2cc(-c3ccc4c(c3)OCCO4)ccc2OCC(=O)Nc2ccc(Cl)c(Cl)c2)CC1` [NUCC-0202021]: the values for the concentration for half-maximal inhibition (IC50) in data set [3] (setting [4]) and in data set [3] (setting [5]) were 1000 to 2000 nM and 1400 nM, respectively.
In the same order, the values of `CN1CCN(Cc2cc(-c3ccc(Cl)cc3Cl)ccc2OCC(=O)Nc2ccc(Cl)c(Cl)c2)CC1` [NUCC-0202001] are less than 1000 nM and less than 740 nM.
In the case of `CN1CCN(Cc2cc(-c3ccc(Cl)cc3)ccc2OCCNS(=O)(=O)c2ccc(Cl)cc2)CC1` [NUCC-0201974], the IC50 in data set [3] (setting [4]) is 1000 to 2000 nM; in data set [3] (setting [5]) it was 1800 nM.
Turning to `C=Cc1ccc(-c2ccc(OCC(=O)NCc3ccc(Cl)cc3)c(CN3CCN(C)CC3)c2)cc1` [NUCC-0201713], the IC50 was 2000 to 5000 nM in data set [3] (setting [4]) and 4700 nM in data set [3] (setting [5]).
For `Cc1ccc(-c2ccc(OCC(=O)NCc3ccc(Cl)cc3)c(CN3CCNCC3)c2)cc1` [NUCC-0201614], in that order: 5000 to 10000 nM and 7200 nM.
In the same order, the values of `Cc1cccc(-c2ccc(OCC(=O)Nc3ccc(O)cc3)c(CN3CC[C@H](N)C3)c2)c1` [NUCC-0201624] are 10000 to 20000 nM and 20000 nM.
For `COc1ccc(NC(=O)COc2ccc(-c3cccc(C)c3)cc2CN2CC[C@H](N)C2)cn1` [NUCC-0201619], the half-maximal inhibitory concentration (IC50) in data set [3] (setting [4]) was 20000 to 40000 nM; in data set [3] (setting [5]), 24000 nM.
Take `Cc1cccc(-c2ccc(OCC(=O)NCc3cccnc3)c(CN3CC[C@H](N)C3)c2)c1` [NUCC-0201626]: the IC50 in data set [3] (setting [5]) is greater than 40000 nM.
